Patent publication US9115151B2, “Substituted 2,10-dihydro-9-oxa-1,2,4A-triazaphenanthren-3-ones and uses thereof” (AbbVie Inc., priority 2012, dated 2015)

Assays:
PKCθ = biological target: T1, PKCθ (Homo sapiens, UniProt Q04759); test: In vitro enzyme assay (time-resolved fluorescence kinase assay), PKCθ, 100 μM ATP; type: biochemical
T1 construct: His6; purchased Millipore; host or cells: baculovirus in Sf21 cells
Protocol: (§1) PKC kinase activity was assayed by time-resolved fluorescence in vitro kinase assay. Unless otherwise indicated, all reagents used for enzyme assays were obtained from Sigma. Specifically, 5 μL N- or C-terminal His6-tagged, recombinant, human PKC, expressed by baculovirus in Sf21 cells (Millipore) was mixed with 5 μL inhibitor (various concentrations, 5% final DMSO), 5 μL Bio-cdc peptide (Biotin-Ahx-[…], 2 μM final concentration, New England Peptide) and 5 μL of ATP (100 μM or 1000 μM final concentration) in 1× reaction buffer, 20 μL final volume.
(§2) Following a sixty minute incubation at room temperature, the reaction was quenched with 5 μL of 0.5 M EDTA pH 7.5.
(§3) Background counts from a minus enzyme control is subtracted from all data. Data (after background correction) are converted to percent activity by dividing by the signal obtained from PKC without drug sample.

PKCα = biological target: T2, PKCα (Homo sapiens, UniProt P17252); test: In vitro enzyme assay (time-resolved fluorescence kinase assay), PKCα, 100 μM ATP; type: biochemical; conditions: 100 μM ATP; read-out: PKCα enzyme IC50
T2 construct: His6; purchased Millipore; host or cells: baculovirus in Sf21 cells
Protocol: as §1, §2, §3

[1] = test system: CD3/CD28 induced IL-2 in human T-Blasts; test: T-Blasts CD3/CD28 induced IL-2 assay; type: cell-based; conditions: read-out: CD3/CD28-stimulated IL2 in T-blasts EC50
Protocol: T-Blasts CD3/CD28 Induced IL-2 Assay
Human T-Blasts are generated using PHA following standard protocols. T-Blasts are freeze aliquoted and vials thawed as required. […] Seed 2×10^5/100 μL cell suspension per well in flat bottomed 96 well plate. Compound dilutions are prepared from 100% DMSO stocks. A total of 8 serial dilutions are made (1/3 in 100% DMSO). Compounds are diluted 1/50 in growth medium to prepare 4× stocks of each tested concentration. 50 μL from each 4× stock concentration is added to the 100 μL cell suspension and incubated for 30 minutes prior stimulus addition. A 4× stimulus stock is prepared using anti-CD3+anti-CD28 antibodies. Antibody mix is added to the cell/compounds suspension in 50 μL at 5 μg/mL final concentration. Compounds are tested in duplicates. Plates are transferred to 37° C./CO2 incubator for 24 hours. After incubation 130 μL of supernatant is collected for IL-2 determination while MTT toxicity analysis is performed on remaining cells/medium.

T1 sequence (Q04759 whole entry): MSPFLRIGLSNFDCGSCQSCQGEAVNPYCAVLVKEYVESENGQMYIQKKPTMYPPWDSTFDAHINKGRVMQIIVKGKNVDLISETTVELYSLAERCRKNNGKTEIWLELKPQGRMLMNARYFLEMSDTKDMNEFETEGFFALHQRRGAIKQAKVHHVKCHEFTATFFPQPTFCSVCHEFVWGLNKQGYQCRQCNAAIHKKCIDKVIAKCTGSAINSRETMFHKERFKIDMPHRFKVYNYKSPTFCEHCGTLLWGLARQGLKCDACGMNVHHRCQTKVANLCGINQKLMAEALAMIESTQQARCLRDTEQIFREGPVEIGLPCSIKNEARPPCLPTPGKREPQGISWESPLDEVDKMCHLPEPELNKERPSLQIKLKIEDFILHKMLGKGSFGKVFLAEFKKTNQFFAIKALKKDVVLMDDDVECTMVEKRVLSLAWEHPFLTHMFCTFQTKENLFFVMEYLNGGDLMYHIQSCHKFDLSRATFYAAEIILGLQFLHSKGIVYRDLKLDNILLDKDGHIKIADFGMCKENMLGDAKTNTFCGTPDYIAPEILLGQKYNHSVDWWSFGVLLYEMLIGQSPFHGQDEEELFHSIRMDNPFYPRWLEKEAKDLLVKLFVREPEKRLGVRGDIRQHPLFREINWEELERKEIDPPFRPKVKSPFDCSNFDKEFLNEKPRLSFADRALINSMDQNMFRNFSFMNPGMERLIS

Row | Structure (SMILES) | IC50 (PKCθ) | IC50 (PKCα) | EC50 [1]
1 | C[C@@H]1C(=O)NN=C2COc3cc(-c4ccco4)c([C@@H](C)C4(C)CN(C)C4)cc3N21 [Example 136] | < 250 nM | 1000 to 10000 nM | 250 to 1000 nM
2 | CC1C(=O)NN=C2COc3cc(-c4ccccc4)c(N(C)C4(C)CN(C5COC5)C4)cc3N21 (stereo not drawn) [Example 196] | < 250 nM | 1000 to 10000 nM | 1000 to 10000 nM
3 | Cc1cc2c(cc1C1CCNCC1)N1C(=NNC(=O)C1C)CO2 (stereo not drawn) [Example 75, 4,7-Dimethyl-6-piperidin-4-yl-2,10-dihydro-9-oxa-1,2,4a-triaza-phenanthren-3-one trifluoroacetic acid] | < 250 nM | 1000 to 10000 nM | 250 to 1000 nM
4 | CC1C(=O)NN=C2COc3cc(-c4ccccc4)c(C4CCNCC4)cc3N21 (stereo not drawn) [Example 119, 1-Methyl-8-phenyl-9-(piperidin-4-yl)-3,5-dihydrobenzo[5,6][1,4]oxazino[3,4-c][1,2,4]triazin-2(1H)-one trifluoroacetic acid] | < 250 nM | 1000 to 10000 nM | < 250 nM
5 | CC1C(=O)NN=C2COc3cc4ccn(C5CNC5)c4cc3N21 (stereo not drawn) [Example 103, 10-(Azetidin-3-yl)-1-methyl-5,10-dihydro-1H-[1,2,4]triazino[4′,3′:4,5][1,4]oxazino[2,3-f]indol-2(3H)-one trifluoroacetic acid] | < 250 nM | 1000 to 10000 nM | 250 to 1000 nM
6 | C[C@@H]1C(=O)NN=C2COc3cc([C@H](C)C(F)(F)F)c(NC4CNC4)cc3N21 [Example 62] | < 250 nM | 1000 to 10000 nM | 250 to 1000 nM
7 | COc1ccc2cc(-c3cc4c(cc3NC3CNC3)N3C(=NNC(=O)C3C)CO4)ccc2c1 (racemic) [Example 35] | < 250 nM | 1000 to 10000 nM | < 250 nM
8 | C[C@@H]1C(=O)NN=C2COc3cc(-c4ccccc4F)c(N4C[C@H](C)N(C)C[C@@H]4C)cc3N21 [Example 247] | < 250 nM | < 250 nM | < 250 nM
9 | CC(C)c1cc2c(cc1[C@@H]1CCNC[C@@H]1C)N1C(=NNC(=O)[C@H]1C)CO2 [Example 202] | < 250 nM | 1000 to 10000 nM | < 250 nM
10 | COCCN1CC(C)(N(C)c2cc3c(cc2-c2ccccc2F)OCC2=NNC(=O)[C@@H](C)N23)C1 [Example 192] | < 250 nM | 250 to 1000 nM | < 250 nM
11 | C[C@@H]1C(=O)NN=C2COc3cc(-c4ccccc4F)c(N(C)C4(C)CN(CCC(F)(F)F)C4)cc3N21 [Example 193] | < 250 nM | 1000 to 10000 nM | 250 to 1000 nM
12 | CC1C(=O)NN=C2COc3cc(-c4ccc(F)c(F)c4)c(NC4CNC4)cc3N21 (racemic) [Example 23] | < 250 nM | 1000 to 10000 nM | < 250 nM
13 | CC1C(=O)NN=C2COc3ccc(NC4(C(C)C)CNC4)cc3N21 (stereo not drawn) [Example 113, 9-((3-Isopropylazetidin-3-yl)amino)-1-methyl-3,5-dihydrobenzo[5,6][1,4]oxazino[3,4-c][1,2,4]triazin-2(1H)-one trifluoroacetic acid] | < 250 nM | 1000 to 10000 nM | < 250 nM
14 | CC1C(=O)NN=C2COc3cc(-c4ccccc4C(F)(F)F)c(NC4CNC4)cc3N21 (racemic) [Example 28] | < 250 nM | 1000 to 10000 nM | < 250 nM
15 | CC1C(=O)NN=C2COc3c(cc(NC4CNC4)c(F)c3F)N21 (stereo not drawn) [Example 114, 9-(Azetidin-3-ylamino)-7,8-difluoro-1-methyl-3,5-dihydrobenzo[5,6][1,4]oxazino[3,4-c][1,2,4]triazin-2(1H)-one trifluoroacetic acid] | < 250 nM | 1000 to 10000 nM | < 250 nM
16 | C[C@@H]1CNCCN1c1cc2c(cc1-c1ccccc1F)OCC1=NNC(=O)[C@@H](C)N12 [Example 223] | < 250 nM | 250 to 1000 nM | < 250 nM
17 | CC1C(=O)NN=C2COc3cc(-c4ccc(F)cc4)c(N(C)C4(C)CN(C)C4)cc3N21 (stereo not drawn) [Example 168] | < 250 nM | 250 to 1000 nM | < 250 nM
18 | CC1C(=O)NN=C2COc3cc(-c4ccc(N(C)C)cc4)c(NC4CNC4)cc3N21 (racemic) [Example 19] | 250 to 1000 nM | 1000 to 10000 nM | < 250 nM
19 | CC1C(=O)NN=C2COc3cc(-c4ccccc4)c(N(C)C4(C)CN(CC5CCOCC5)C4)cc3N21 (stereo not drawn) [Example 95] | < 250 nM | 250 to 1000 nM | < 250 nM

Row | Structure (SMILES) | IC50 (PKCθ) | IC50 (PKCα) | EC50 [1]
20 | C[C@@H]1C(=O)NN=C2COc3cc(C4=CCC(F)(F)CC4)c(C4CCNCC4)cc3N21 [Example 211] | < 250 nM | 1000 to 10000 nM | 250 to 1000 nM
21 | CC1C(=O)NN=C2COc3ccc(C4CCNCC4(C)C)cc3N21 (stereo not drawn) [Example 74] | < 250 nM | 1000 to 10000 nM | 250 to 1000 nM
22 | C[C@@H]1C(=O)NN=C2COc3cc(-c4ccccc4F)c(N4[C@@H]5CC[C@H]4CN(C)C5)cc3N21 [Example 235] | < 250 nM | 250 to 1000 nM | 250 to 1000 nM
23 | CC1C(=O)NN=C2COc3ccc(OC4(C)CNC4)cc3N21 (stereo not drawn) [Example 69, 4-Methyl-6-(3-methyl-azetidin-3-yloxy)-2,10-dihydro-9-oxa-1,2,4a-triaza-phenanthren-3-one trifluoroacetic acid] | < 250 nM | 1000 to 10000 nM | < 250 nM
24 | C[C@@H]1C(=O)NN=C2COc3cc4ccn([C@]5(C)CCNC5)c4cc3N21 [Example 164, (R)-1-Methyl-10-((R)-3-methyl-pyrrolidin-3-yl)-3,5-dihydro-10H-6-oxa-3,4,10,11b-tetraaza-cyclopenta[b]phenanthren-2-one] | < 250 nM | 1000 to 10000 nM | 250 to 1000 nM
25 | CC1C(=O)NN=C2COc3cc(-c4ccccc4)c(NC4CNC4)cc3N21 (racemic) [Example 51] | < 250 nM | 1000 to 10000 nM | 250 to 1000 nM
26 | CC1C(=O)NN=C2COc3cc(-c4ccccc4)c(NC4(C)CNC4)cc3N21 (stereo not drawn) [Example 79, 4-Methyl-6-(3-methyl-azetidin-3-ylamino)-7-phenyl-2,10-dihydro-9-oxa-1,2,4a-triaza-phenanthren-3-one trifluoroacetic acid] | 250 to 1000 nM | 1000 to 10000 nM | 1000 to 10000 nM
27 | C[C@H](O)CN1CC(C)(N(C)c2cc3c(cc2-c2ccccc2F)OCC2=NNC(=O)[C@@H](C)N23)C1 [Example 188] | < 250 nM | < 250 nM | < 250 nM
28 | CC1C(=O)NN=C2COc3cc(-c4cccc(COC(C)(C)C)c4)c(NC4CNC4)cc3N21 (racemic) [Example 40] | 250 to 1000 nM | 1000 to 10000 nM | 250 to 1000 nM
29 | CC1C(=O)NN=C2COc3cc(-c4ccccc4F)c(N4CC5CCC4CN5C)cc3N21 (stereo not drawn) [Example 236] | < 250 nM | 1000 to 10000 nM | 1000 to 10000 nM
30 | CC1C(=O)NN=C2COc3cc(F)c(OC4(C)CNC4)cc3N21 (stereo not drawn) [Example 80, 7-Fluoro-4-methyl-6-(3-methyl-azetidin-3-yloxy)-2,10-dihydro-9-oxa-1,2,4a-triaza-phenanthren-3-one trifluoroacetic acid] | < 250 nM | 1000 to 10000 nM | < 250 nM
31 | C[C@@H]1C(=O)NN=C2COc3cc4ccn([C@@H]5CCNC5)c4cc3N21 [Example 151-2, (R)-1-Methyl-10-(R)-pyrrolidin-3-yl-3,5-dihydro-10H-6-oxa-3,4,10,11b-tetraaza-cyclopenta[b]phenanthren-2-one hydrochloric acid] | < 250 nM | 1000 to 10000 nM | 250 to 1000 nM
32 | CC1C(=O)NN=C2COc3cc(-c4ccccc4OC(F)(F)F)c(NC4CNC4)cc3N21 (racemic) [Example 27] | < 250 nM | 1000 to 10000 nM | < 250 nM
33 | CCC1(n2ccc3cc4c(cc32)N2C(=NNC(=O)[C@H]2C)CO4)CNC1 [Example 150] | < 250 nM | 1000 to 10000 nM | 250 to 1000 nM
34 | CC1C(=O)NN=C2COc3cc(-c4cccc5ccccc45)c(NC4CNC4)cc3N21 (racemic) [Example 52] | < 250 nM | 1000 to 10000 nM | 250 to 1000 nM
35 | C[C@@H]1C(=O)NN=C2COc3cc(-c4ccccc4F)c([C@@H](C)C4(C)CN(C[C@@H](C)O)C4)cc3N21 [Example 140] | < 250 nM | 250 to 1000 nM | < 250 nM
36 | C[C@@H]1C(=O)NN=C2COc3ccc([C@H]4CCN[C@H](Cc5ccccc5)C4)cc3N21 (single isomer, unassigned) [Example 109-1, trifluoroacetic acid] | < 250 nM | 1000 to 10000 nM | < 250 nM
37 | CC1C(=O)NN=C2COc3cc(C(C)C(F)(F)F)c(NC4(C)CNC4)cc3N21 (stereo not drawn) [Example 63] | < 250 nM | 1000 to 10000 nM | < 250 nM
38 | C[C@@H]1CNCC[C@@H]1c1cc2c(cc1-c1ccccc1CO)OCC1=NNC(=O)[C@@H](C)N12 [Example 204] | < 250 nM | 1000 to 10000 nM | 250 to 1000 nM
